The values that follow come from patent US9186353B2, “Treatment of osteoarthritis pain” (AbbVie Inc., priority 2009, dated 2015).

For data set [1], the system named is adult osteoarthritic rats. Put plainly: MIA-OA osteoarthritis pain model, hind limb grip force. The format is in vivo, Male Sprague Dawley rats. As to conditions: Rattus norvegicus, 480 h, read-out: % Effect; for inhibition in vivo at 1 mg/kg: 1 mg/kg i.p.; for inhibition in vivo at 3 mg/kg: 3 mg/kg i.p. How it is done: This model, the MIA-OA model is well known to those skilled in the art. A general review of various models of pain is found in Joshi and Honore, Expert Opinion in Drug Discovery (2004) 1, pp. 323-334, and in the book ‘Drug Discovery and Evaluation, 2nd edition’ (H. Gerhard Vogel, editor; Springer-Verlag, New York, 2002; pp. 702-706).
Pain behavior was assessed by measurement of hind limb grip force (GF) in adult osteoarthritic rats. Male Sprague Dawley rats, 325-350 g, were injected in the unilateral knee join with a single intra-articular injection of sodium monoiodoacetate (MIA). All rats were tested at 20 days following MIA injection. A behavioral measure of activity-induced pain was carried out. Measurements of the peak hind limb grip force were conducted by recording the maximum compressive force (CFmax), in grams of force, exerted on a hind limb strain gauge setup, in a commercially available grip force measurement system (Columbus Instruments, Columbus, Ohio).
During testing, each rat was gently restrained by grasping it around its rib cage and then allowed to grasp the wire mesh frame attached to the strain gauge. The experimenter then moved the animal in a rostral-to-caudal direction until the grip was broken. Each rat was sequentially tested twice at approximately 2-3 min interval to obtain a raw mean grip force (CFmax). This raw mean grip force data was in turn converted to a maximum hindlimb cumulative compressive force (CFmax), as the grams of force/kg of body weight, for each animal.
For evaluating the compound effects, the hind limb grip force was conducted 20 days following the intra-articular injection of MIA. A group of age-matched naïve (not injected with MIA) animals was added as a comparator to the drug-dosed groups. The vehicle control response for each group of MIA-treated animals was defined as the 0% response (0% effect), whereas the naïve control group was defined as the normal response and as 100% effect. The % effects for each dose group was expressed as % return of response to normalcy, compared to the naïve group. That is, the % effect=(Treatment CFmax−Vehicle CFmax)/Vehicle CFmax]×100). Higher % effect numbers indicate increased relief from the pain in the model, with 100% indicating a return to the level of response seen in normal (non-osteoarthritic) animals. All experiments evaluating drug effects in this model were conducted in a randomized blinded fashion.
Male Sprague Dawley rats (250-300 g body weight) obtained from Charles River Laboratories (Wilmington, Mass.) were used for all experiments, unless indicated otherwise. The animals were housed in Association for Assessment and Accreditation of Laboratory Animal Care (AAALAC) approved facilities at Abbott Laboratories in a temperature-regulated environment under a controlled 12-h light-dark cycle, with lights on at 6:00 a.m. Food and water were available ad libitum at all times except during testing. All testing was done following procedures outlined in protocols approved by Abbott Laboratories' Institutional Animal Care and Use Committee.

[2] abbreviates: ip, hind limb grip force (CFmax) 20 days after intra-articular MIA, % return to normalcy vs naive, mean ± SEM.

As for `CC(C)N1CCCN(C(=O)C2CCN(c3ccc(C(F)(F)F)nc3)CC2)CC1` [Example 7, (4-isopropyl-1,4-diazepan-1-yl)(1-(6-(trifluoromethyl)pyridin-3-yl)piperidin-4-yl)methanone, reference compound], in data set [1] (setting [2]), the inhibition in vivo at 1 mg/kg stood at 51 ± 8% and the inhibition in vivo at 3 mg/kg was 66 ± 6%.
With `Cc1ccc(-c2cc(C(F)(F)F)nn2-c2ccc(S(N)(=O)=O)cc2)cc1` [celecoxib, reference compound], in data set [1] (30 mg/kg, positive control, hind limb grip force 20 days after MIA), the inhibition in vivo at 30 mg/kg came to 89%.
In the case of `C[C@H]1CCCN1C[C@H]1C[C@@H]1c1ccc(-n2ncccc2=O)cc1` [Example 8, 2-[4-((1S,2S)-2-{[(2S)-2-methylpyrrolidin-1-yl]methyl}cyclopropyl)phenyl]pyridazin-3(2H)-one], in data set [1] (setting [2]), the inhibition in vivo at 1 mg/kg is 47 ± 6% and the inhibition in vivo at 3 mg/kg was determined as 68 ± 4%. Besides, in data set [1] (ip, 10 mg/kg i.p., hind limb grip force (CFmax) 20 days after intra-articular MIA, % return to normalcy vs naive, mean ± SEM), the inhibition in vivo at 10 mg/kg was determined as 82 ± 5%.
For the compound `O=c1cccnn1-c1ccc2nc([C@H]3C[C@@H](N4CCCCC4)C3)sc2c1` [Example 1, Cis-2-[2-(3-piperidin-1-ylcyclobutyl)-1,3-benzothiazol-6-yl]pyridazin-3(2H)-one], the melting point is 127 to 128 °C. Moreover, in data set [1] (setting [2]), the inhibition in vivo at 1 mg/kg came out at 51 ± 6% and the inhibition in vivo at 3 mg/kg was determined as 79 ± 6%.
`O=c1cccnn1-c1ccc2nc([C@H]3C[C@H](N4CCCCC4)C3)sc2c1` [Example 2, Trans-2-[2-(3-piperidin-1-ylcyclobutyl)-1,3-benzothiazol-6-yl]pyridazin-3(2H)-one]: the inhibition in vivo at 3 mg/kg in data set [1] (setting [2]) came to 43 ± 13%.
Turning to `CNC(=O)c1cnc(Oc2ccc3c(c2)CCN(C2CCC2)CC3)cn1` [Example 6, (5-(3-cyclobutyl-2,3,4,5-tetrahydro-1H-benzo[d]azepin-7-yloxy)-N-methylpyrazine-2-carboxamide), reference compound], in data set [1] (setting [2]), the inhibition in vivo at 1 mg/kg was 65 ± 9% and the inhibition in vivo at 3 mg/kg was found to be 90 ± 17%.
For `C[C@@H]1CCCN1CCc1cc2cc(-c3ccc(C#N)cc3)ccc2o1` [Example 4, (4-(2-(2-[2(R)-Methyl-1-pyrrolidinyl]ethyl)-1-benzofuran-5-yl)benzonitrile)], in that order: 40 ± 4% and 56 ± 6%.
For `CNC(=O)c1ccc(Oc2ccc3c(c2)CCN(C2CCC2)CC3)nc1` [Example 5, (6-(3-Cyclobutyl-2,3,4,5-tetrahydro-1H-benzo[d]azepin-7-yloxy)-N-methyl-nicotinamide), reference compound], in that order: 54 ± 5% and 74 ± 4%.
`O=C1[C@@H](O)CCN1c1ccc2nc(C3CC(N4CCCCC4)C3)sc2c1` (stereo partly drawn) [Example 3, (S)-3-Hydroxy-1-[2-(3-piperidin-1-yl-cyclobutyl)-benzothiazol-6-yl]-pyrrolidin-2-one]: in data set [1] (setting [2]), the inhibition in vivo at 1 mg/kg is 26 ± 2% and the inhibition in vivo at 3 mg/kg came out at 53 ± 5%.

As a reminder, the melting point is the temperature of the solid-liquid transition.
